In this assay the test system is BDF1 mice, B16 melanoma ip, median survival T/C. Briefly: NCI In Vivo Anticancer Drug Screen. Data for tumor model B16 Melanoma (intraperitoneal) in B6D2F1 (BDF1) mice. The note with it: endpoint: median survival time, higher = longer survival. The gist of the method:
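Read-out: survival or tumor size, given as treated/control ratio. Controls received vehicle only; animals bore transplantable tumors.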

The mark [1] stands for this setting: dose: 6.25 mg/kg/injection, schedule: Q01DX009 (ip), vehicle: saline with Tween-80.
Setting [2] is: dose: 12.5 mg/kg/injection, schedule: Q01DX009 (ip), vehicle: saline with Tween-80.
Setting [3] is: dose: 25.0 mg/kg/injection, schedule: Q01DX009 (ip), vehicle: saline with Tween-80.
Where [4] appears, read: dose: 50.0 mg/kg/injection, schedule: Q01DX009 (ip), vehicle: saline with Tween-80.
Where [5] appears, read: dose: 200.0 mg/kg/injection, schedule: Q01DX009 (ip), vehicle: saline with Tween-80.
The mark [6] stands for this setting: dose: 400.0 mg/kg/injection, schedule: Q01DX009 (ip), vehicle: saline with Tween-80.
Where [7] appears, read: dose: 12.5 mg/kg/injection, schedule: Q01DX009 (ip), vehicle: Klucel (hydroxypropylcellulose) (HPC).
Where [8] appears, read: dose: 25.0 mg/kg/injection, schedule: Q01DX009 (ip), vehicle: Klucel (hydroxypropylcellulose) (HPC).
[9] abbreviates: dose: 50.0 mg/kg/injection, schedule: Q01DX009 (ip), vehicle: Klucel (hydroxypropylcellulose) (HPC).
Where [10] appears, read: dose: 6.25 mg/kg/injection, schedule: Q01DX009 (ip), vehicle: saline.
Setting [11] is: dose: 12.5 mg/kg/injection, schedule: Q01DX009 (ip), vehicle: saline.
Setting [12] is: dose: 25.0 mg/kg/injection, schedule: Q01DX009 (ip), vehicle: saline.
[13] abbreviates: dose: 50.0 mg/kg/injection, schedule: Q01DX009 (ip), vehicle: saline.
[14] abbreviates: dose: 100.0 mg/kg/injection, schedule: Q01DX009 (ip), vehicle: saline.
Where [15] appears, read: dose: 100.0 mg/kg/injection, schedule: Q01DX009 (ip), vehicle: saline with Tween-80.
Setting [16] is: dose: 100.0 mg/kg/injection, schedule: Q04DX003 (ip), vehicle: Klucel (hydroxypropylcellulose) (HPC).

SMILES strings stand for the structures. Where “and” joins values, the source holds several entries; their conditions need not be identical. Equal entries are not always repeated. Inconclusive results and toxic doses are left out.

As to `CC1=CCC(C(C)(C)c2ccc(O)cc2)CC1` (centres undefined), the T/C reads like this: under setting [1], 96 % of control; under setting [2], 105 % of control; under setting [3], 102 % of control and 106 % of control.

For the compound `CCCCCCCCCCOCCCCCCCCCC`, the T/C runs as follows: under setting [2], 95 % of control; under setting [3], 95 % of control; under setting [4], 95 % of control; under setting [5], 88 % of control; under setting [6], 88 % of control.

Turning to `CCCC1=NNc2n[nH]c(=S)n2N1`, the T/C is 106 % of control under setting [7], 112 % of control under setting [8] and 87 % of control under setting [9].

In the case of `CN(C)CCCN1Cc2ccccc2Cc2ccccc21`, the T/C runs as follows: under setting [10], 105 % of control; under setting [11], 103 % of control; under setting [12], 111 % of control; under setting [13], 101 % of control; under setting [14], 107 % of control.

Take `CC(C)(C)OC(=O)NC(CCC(=O)OCc1ccccc1)C(=O)ON1C(=O)CCC1=O` (centres undefined): the T/C is 95 % of control under setting [4] and 90 % of control under setting [15].

Take `O=C(NC(CO)C(=O)OCc1ccccc1)OCc1ccccc1` (centres undefined): the T/C is, setting by setting: under setting [15], 111 % of control; under setting [5], 113 % of control; under setting [6], 105 % of control.

Consider `C=C(CCC(C(=O)O)C1CCC2(C)C3=C(CCC12C)C1(C)CCC(O)C(C)(C)C1CC3)C(C)C` (centres undefined), for which the T/C is 98 % of control (dose: 20.0 mg/kg/injection, schedule: Q01DX009 (sc), vehicle: steriod suspending solution); 105 % of control (dose: 40.0 mg/kg/injection, schedule: Q01DX009 (sc), vehicle: steriod suspending solution); 101 % of control (dose: 80.0 mg/kg/injection, schedule: Q01DX009 (sc), vehicle: steriod suspending solution); 92 % of control (dose: 160.0 mg/kg/injection, schedule: Q01DX009 (sc), vehicle: steriod suspending solution); 94 % of control (dose: 165.0 mg/kg/injection, schedule: Q01DX009 (sc), vehicle: steriod suspending solution); 102 % of control (dose: 250.0 mg/kg/injection, schedule: Q01DX009 (sc), vehicle: steriod suspending solution).

For `Fc1ccc(/C=C2/c3cc(Cl)ccc3-c3c(Cl)cc(Cl)cc32)cc1`, the T/C is, setting by setting: under setting [1], 90 % of control; under setting [2], 90 % of control; under setting [3], 95 % of control.

Take `CCCCCCOCCN1CCN(CCCN2c3ccccc3Sc3ccc(C(F)(F)F)cc32)CC1`: the T/C runs as follows: (dose: 0.5 mg/kg/injection, schedule: Q01DX009 (ip), vehicle: saline with Tween-80) 112 % of control; (dose: 1.0 mg/kg/injection, schedule: Q01DX009 (ip), vehicle: saline with Tween-80) 109 % of control; (dose: 2.0 mg/kg/injection, schedule: Q01DX009 (ip), vehicle: saline with Tween-80) 109 % of control.

For the compound `O=C1CC(CO)CN1CCc1ccccc1` (centres undefined), the T/C was 110 % of control under setting [16]; 107 % of control (dose: 200.0 mg/kg/injection, schedule: Q04DX003 (ip), vehicle: Klucel (hydroxypropylcellulose) (HPC)); 102 % of control (dose: 400.0 mg/kg/injection, schedule: Q04DX003 (ip), vehicle: Klucel (hydroxypropylcellulose) (HPC)).

`CN(C)CC/C=C1\c2ccccc2CSc2ccccc21`: the T/C runs as follows: (dose: 3.12 mg/kg/injection, schedule: Q01DX009 (ip), vehicle: saline) 90 % of control and 100 % of control; under setting [10], 89 % of control and 100 % of control; under setting [11], 97 % of control; under setting [12], 104 % of control; under setting [13], 95 % of control and 102 % of control.

As to `CN(C)CC(C)(C)CN1c2ccccc2Sc2ccccc21`, the T/C was 117 % of control under setting [10], 105 % of control under setting [11] and 105 % of control under setting [12].

Turning to `CN(C)CC(C(=O)Cc1ccccc1)c1ccccc1` (centres undefined), the T/C is 93 % of control under setting [12], 88 % of control under setting [13] and 97 % of control under setting [14].

In the case of `COc1cccc2c1C(=O)c1c(O)c3c(c(O)c1C2=O)C[C@@](O)(C(C)O)C[C@@H]3OC1CC(N2CCOCC2)C(O)C(C)O1` (some centres undefined), the T/C was 100 % of control (dose: 62.5 micrograms/kg/injection, schedule: Q01DX001 (ip), vehicle: water); 104 % of control (dose: 125.0 micrograms/kg/injection, schedule: Q01DX001 (ip), vehicle: water); 112 % of control (dose: 250.0 micrograms/kg/injection, schedule: Q01DX001 (ip), vehicle: water).

`CCCCCCCCCCCCCOC(=O)CC(C(=O)OCCCCCCCCCCCCC)S(=O)(=O)O` (centres undefined): the T/C under setting [7] is 106 % of control; the T/C under setting [8] is 108 % of control; the T/C under setting [9] is 106 % of control; the T/C (dose: 100.0 mg/kg/injection, schedule: Q01DX009 (ip), vehicle: Klucel (hydroxypropylcellulose) (HPC)) was 93 % of control; the T/C (dose: 200.0 mg/kg/injection, schedule: Q01DX009 (ip), vehicle: Klucel (hydroxypropylcellulose) (HPC)) is 111 % of control.

In the case of `CSc1nc(C)cc(Cl)n1`, the T/C is 104 % of control under setting [4], 113 % of control under setting [15] and 90 % of control under setting [5].

With `CCC1CC2CC(c3cc4c(cc3OC)N(C)C3C(O)(C(=O)OC)C(OC(C)=O)C5(CC)C=CCN6CCC43C65)c3[nH]c4ccccc4c3CCN(C1)C2` (centres undefined), the T/C runs as follows: (dose: 0.25 mg/kg/injection, schedule: Q01DX009 (ip), vehicle: Klucel (hydroxypropylcellulose) (HPC)) 108 % of control; (dose: 0.5 mg/kg/injection, schedule: Q01DX009 (ip), vehicle: Klucel (hydroxypropylcellulose) (HPC)) 94 % of control; (dose: 1.0 mg/kg/injection, schedule: Q01DX009 (ip), vehicle: Klucel (hydroxypropylcellulose) (HPC)) 104 % of control; (dose: 2.0 mg/kg/injection, schedule: Q01DX009 (ip), vehicle: Klucel (hydroxypropylcellulose) (HPC)) 111 % of control; (dose: 4.0 mg/kg/injection, schedule: Q01DX009 (ip), vehicle: Klucel (hydroxypropylcellulose) (HPC)) 108 % of control; (dose: 8.0 mg/kg/injection, schedule: Q01DX009 (ip), vehicle: Klucel (hydroxypropylcellulose) (HPC)) 104 % of control.

For the compound `CCCCCCCCCCCCCCCCCC(=O)[O][Pb]([CH3])([CH3])[CH3]`, the T/C by setting is: (dose: 1.25 mg/kg/injection, schedule: Q01DX009 (ip), vehicle: Klucel (hydroxypropylcellulose) (HPC)) 99 % of control; (dose: 2.5 mg/kg/injection, schedule: Q01DX009 (ip), vehicle: Klucel (hydroxypropylcellulose) (HPC)) 99 % of control; (dose: 5.0 mg/kg/injection, schedule: Q01DX009 (ip), vehicle: Klucel (hydroxypropylcellulose) (HPC)) 91 % of control.

As for `CN(C)C(=S)Nc1ccccc1`, the T/C is, setting by setting: under setting [4], 95 % of control; under setting [15], 95 % of control; under setting [5], 90 % of control.

`COc1cccc2c1C(=O)c1c(O)c3c(c(O)c1C2=O)C[C@@](O)(C(=O)COC(=O)CCCCC(=O)O)C[C@@H]3OC1CC(NC(=O)C(F)(F)F)C(O)C(C)O1` (some centres undefined): the T/C was 175 % of control (dose: 18.75 mg/kg/injection, schedule: Q01DX001 (ip), vehicle: other); 168 % of control and 205 % of control (dose: 37.5 mg/kg/injection, schedule: Q01DX001 (ip), vehicle: other); 205 % of control and 271 % of control (dose: 75.0 mg/kg/injection, schedule: Q01DX001 (ip), vehicle: other); 150 % of control (dose: 150.0 mg/kg/injection, schedule: Q01DX001 (ip), vehicle: other).

Regarding `CCOc1cc(C2=NNc3n[nH]c(=S)n3N2)ccc1O`, the T/C under setting [8] is 96 % of control; the T/C (dose: 25.0 mg/kg/injection, schedule: Q04DX003 (ip), vehicle: Klucel (hydroxypropylcellulose) (HPC)) was 97 % of control; the T/C under setting [9] is 100 % of control; the T/C (dose: 50.0 mg/kg/injection, schedule: Q04DX003 (ip), vehicle: Klucel (hydroxypropylcellulose) (HPC)) is 102 % of control; the T/C under setting [16] was 122 % of control.

The values above are taken from PubChem BioAssay AID192 (DTP/NCI, 2004).
